US20040161399A1, “Use of nonimmunosuppressive [$g(g)-hydroxy-n-methyl-l-leucine4]cyclosporin derivatives for treating hair loss” (priority 2001, published 2004)
Starred links: 1 amine or outer side, 2 acyl side, 3 side chain; linkers in the order of their positions; H or OH if unused. Non-standard residues stand in square brackets, D forms with d. Residues, ends and D or L forms follow the SMILES beside them. AlaΨ(CSNH)dAla = C[C@H](N[*:1])C(=S)N[C@H](C)C(=O)[*:2]; MeBmt = C/C=C/C[C@@H](C)[C@@H](O)[C@H](NC)C(=O)O; NMeLeu(4-OH) = CN[C@@H](CC(C)(C)O)C(=O)O; NMeL = CN[C@@H](CC(C)C)C(=O)O; NMeV = CN[C@H](C(=O)O)C(C)C; dHiv = CC(C)[C@@H](O)C(=O)O; dNMeA = CN[C@H](C)C(=O)O; Abu = CC[C@H](N)C(=O)O; Sar = CNCC(=O)O

Tests used:
Female C57BL/6 mice = experiment: Evaluation of hair restoring effect in mice (topical application to shaved back); format: in vivo; details: for hair restoring / hair growth promoting effect (in words): qualitative statement; for Area rate of hair regrowth (%): C57BL/6 mice, hair-removed back, 100 μl of 0.1% w/v once a day for 30 days, visual examination
Description: Evaluation of Hair Restoring Effect in Mice
Female C57BL/6 mice of ages 6 to 7 weeks were utilized. After removing hairs on the middle of the back with an electric shaver, the mice were weighed and randomly assigned to the test groups with an even distribution of weights. […] The results were determined by visual examination, in terms of degrees of hair regrowth. With respect to respective hair-removed areas, rates of new hair growth were examined and compared.

[1] = tested on: splenocytes (responder cells from BALB/c mice, stimulator cells from C57BL/6 mice); experiment: Mixed Lymphocyte Reaction (MLR) method, 3H-thymidine incorporation; format: cell-based; details: qualitative statement
Description: Evaluation of Non-Immunosuppressive Activity In Vitro
Responder cells from BALB/c mice were mixed with an equal number of stimulator cells from C57BL/6 mice pre-treated with mitomycin. […] After 4 days of incubation, ^3H-thymidine was added to the mixtures and incubated for an additional 4 hours. Then, the amount of thymidine incorporated into the cells was measured (liquid scintillation counter), and IC50 (μg/ml) of respective cyclosporins were calculated.

With “[γ-hydroxy-N-methyl-L-leucine^4] cyclosporin A [reference compound]” the “hair restoring / hair growth promoting effect (in words)” value (Female C57BL/6 mice) was “has a hair restoring effect” and the “immunosuppressive activity (in words)” value [1] was “no immunosuppressive activity”.
With `C/C=C/C[C@@H](C)[C@@H](O)[C@H]1C(=O)N[C@@H](CC)C(=O)N(C)[C@H](C)C(=O)N(C)[C@@H](CC(C)(C)O)C(=O)N[C@@H](C(C)C)C(=O)N(C)[C@@H](CC(C)C)C(=O)N[C@@H](C)C(=O)N[C@H](C)C(=O)N(C)[C@@H](CC(C)C)C(=O)N(C)[C@@H](CC(C)C)C(=O)N(C)[C@@H](C(C)C)C(=O)N1C` [[N-methyl-D-alanine^3][γ-hydroxy-N-methyl-L-leucine^4] cyclosporin A] (cyclo([MeBmt][Abu][dNMeA][NMeLeu(4-OH)]V[NMeL]A[dA][NMeL][NMeL][NMeV])) the “Area rate of hair regrowth (%)” value (Female C57BL/6 mice) was 95%, the “hair restoring / hair growth promoting effect (in words)” value (Female C57BL/6 mice) was “has a hair restoring effect” and the “immunosuppressive activity (in words)” value [1] was “reduced”.
With `C/C=C/C[C@@H](C)[C@@H](O)[C@H]1C(=O)N[C@@H](CC)C(=O)N(C)CC(=O)N(C)[C@@H](CC(C)(C)O)C(=O)N[C@@H](C(C)C)C(=O)N(C)[C@@H](CC(C)C)C(=O)N[C@@H](C)C(=S)N[C@H](C)C(=O)N(C)[C@@H](CC(C)C)C(=O)N(C)[C@@H](CC(C)C)C(=O)N(C)[C@@H](C(C)C)C(=O)N1C` [[γ-hydroxy-N-methyl-L-leucine^4][alaninethiomide^7, ^7ψ^8 CS—NH] cyclosporin A] (cyclo([MeBmt][Abu][Sar][NMeLeu(4-OH)]V[NMeL][AlaΨ(CSNH)dAla][NMeL][NMeL][NMeV])) the “Area rate of hair regrowth (%)” value (Female C57BL/6 mice) was 91%.
`C/C=C/C[C@@H](C)[C@@H](O)[C@H]1C(=O)N[C@@H]([C@@H](C)O)C(=O)N(C)CC(=O)N(C)[C@@H](CC(C)(C)O)C(=O)N[C@@H](CC(C)C)C(=O)N(C)[C@@H](CC(C)C)C(=O)N[C@@H](C)C(=O)O[C@H](C(C)C)C(=O)N(C)[C@@H](CC(C)C)C(=O)N[C@@H](CC(C)C)C(=O)N(C)[C@@H](C(C)C)C(=O)N1C` [[L-threonine^2][γ-hydroxy-N-methyl-L-leucine^4][L-leucine^5][D-2-hydroxyisovaleric acid^8][L-leucine^10] cyclosporin A] (cyclo([MeBmt]T[Sar][NMeLeu(4-OH)]L[NMeL]A[dHiv][NMeL]L[NMeV])) was tested, and the “Area rate of hair regrowth (%)” value (Female C57BL/6 mice) was 90%.
